Experimental data from paper PMC8865919, “Penicillin Binding Proteins and β-Lactamases of Mycobacterium tuberculosis: Reexamination of the Historical Paradigm” (mSphere, 2022).

What was measured:
Experiment in all cases: BOCILLIN FL fluorescence inhibition, SDS-PAGE
Assay type in all cases: binding
Settings in all cases: read-out: FIC50
PbpB (Rv2163c) = PbpB (Rv2163c) (Mycobacterium tuberculosis, UniProt L0T911)
From the text: BOCILLIN FL fluorescence inhibition, SDS-PAGE on PbpB (Rv2163c)

DacB (Rv3627c) = DacB (Rv3627c) (Mycobacterium tuberculosis, UniProt O06380)
Chain of DacB (Rv3627c) (O06380 35-461): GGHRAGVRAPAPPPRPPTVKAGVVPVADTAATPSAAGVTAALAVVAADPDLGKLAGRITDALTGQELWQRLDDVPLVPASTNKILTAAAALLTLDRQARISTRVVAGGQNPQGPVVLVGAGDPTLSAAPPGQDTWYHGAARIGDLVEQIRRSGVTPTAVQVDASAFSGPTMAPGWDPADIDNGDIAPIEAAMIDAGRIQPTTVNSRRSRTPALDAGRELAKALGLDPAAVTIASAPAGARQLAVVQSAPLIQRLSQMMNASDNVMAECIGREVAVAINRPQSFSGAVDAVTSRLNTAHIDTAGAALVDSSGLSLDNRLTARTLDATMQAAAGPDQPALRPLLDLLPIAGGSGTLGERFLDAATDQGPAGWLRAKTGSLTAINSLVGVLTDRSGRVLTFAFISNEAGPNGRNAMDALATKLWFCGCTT
From the text: BOCILLIN FL fluorescence inhibition, SDS-PAGE on DacB (Rv3627c)

Rv1730c = Rv1730c (Mycobacterium tuberculosis, UniProt P71988)
Chain of Rv1730c (P71988 entry or part of it): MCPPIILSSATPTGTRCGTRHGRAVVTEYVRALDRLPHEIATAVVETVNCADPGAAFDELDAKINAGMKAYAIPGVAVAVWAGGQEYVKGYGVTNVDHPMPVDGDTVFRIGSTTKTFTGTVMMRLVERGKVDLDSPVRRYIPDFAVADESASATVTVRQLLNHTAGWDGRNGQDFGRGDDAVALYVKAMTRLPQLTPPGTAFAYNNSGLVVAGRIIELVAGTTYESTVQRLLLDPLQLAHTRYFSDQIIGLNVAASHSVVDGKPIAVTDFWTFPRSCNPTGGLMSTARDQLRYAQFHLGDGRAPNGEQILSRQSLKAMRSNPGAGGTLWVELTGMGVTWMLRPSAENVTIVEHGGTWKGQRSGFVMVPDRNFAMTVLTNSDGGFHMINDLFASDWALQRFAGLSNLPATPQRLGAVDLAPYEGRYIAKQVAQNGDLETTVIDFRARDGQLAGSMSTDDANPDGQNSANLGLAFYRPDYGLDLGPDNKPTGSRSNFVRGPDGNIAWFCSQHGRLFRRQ
From the text: BOCILLIN FL fluorescence inhibition, SDS-PAGE on Rv1730c

DacB1 (Rv3330) = DacB1 (Rv3330) (Mycobacterium tuberculosis, UniProt O53380)
Chain of DacB1 (Rv3330) (O53380 33-374): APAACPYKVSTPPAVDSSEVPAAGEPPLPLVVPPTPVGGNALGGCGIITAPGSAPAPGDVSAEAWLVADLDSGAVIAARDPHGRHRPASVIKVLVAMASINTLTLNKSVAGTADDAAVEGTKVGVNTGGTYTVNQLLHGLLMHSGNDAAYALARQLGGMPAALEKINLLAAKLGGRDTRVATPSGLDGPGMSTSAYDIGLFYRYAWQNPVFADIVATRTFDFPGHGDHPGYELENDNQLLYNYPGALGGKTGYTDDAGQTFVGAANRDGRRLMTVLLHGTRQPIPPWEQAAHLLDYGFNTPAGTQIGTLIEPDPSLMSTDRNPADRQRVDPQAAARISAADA
From the text: BOCILLIN FL fluorescence inhibition, SDS-PAGE on DacB1 (Rv3330)

PbpA (Rv0016c) = PbpA (Rv0016c) (Mycobacterium tuberculosis, UniProt P9WKD1)
Chain of PbpA (Rv0016c) (P9WKD1 29-491): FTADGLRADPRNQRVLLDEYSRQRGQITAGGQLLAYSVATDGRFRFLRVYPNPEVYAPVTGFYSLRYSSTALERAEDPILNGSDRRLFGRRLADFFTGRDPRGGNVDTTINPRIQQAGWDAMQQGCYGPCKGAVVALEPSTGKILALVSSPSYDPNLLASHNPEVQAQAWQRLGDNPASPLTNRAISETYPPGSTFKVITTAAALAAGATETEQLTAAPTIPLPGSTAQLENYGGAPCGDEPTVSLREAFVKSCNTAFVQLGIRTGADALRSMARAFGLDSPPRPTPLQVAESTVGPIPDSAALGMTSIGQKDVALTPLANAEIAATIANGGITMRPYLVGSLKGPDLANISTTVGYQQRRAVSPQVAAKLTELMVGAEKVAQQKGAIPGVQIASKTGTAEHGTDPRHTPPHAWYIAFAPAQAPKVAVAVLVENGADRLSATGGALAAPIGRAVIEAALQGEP
From the text: BOCILLIN FL fluorescence inhibition, SDS-PAGE on PbpA (Rv0016c)

PonA1 (Rv0050) = PonA1 (Rv0050) (Mycobacterium tuberculosis, UniProt P71707)
Chain of PonA1 (Rv0050) (P71707 160-820): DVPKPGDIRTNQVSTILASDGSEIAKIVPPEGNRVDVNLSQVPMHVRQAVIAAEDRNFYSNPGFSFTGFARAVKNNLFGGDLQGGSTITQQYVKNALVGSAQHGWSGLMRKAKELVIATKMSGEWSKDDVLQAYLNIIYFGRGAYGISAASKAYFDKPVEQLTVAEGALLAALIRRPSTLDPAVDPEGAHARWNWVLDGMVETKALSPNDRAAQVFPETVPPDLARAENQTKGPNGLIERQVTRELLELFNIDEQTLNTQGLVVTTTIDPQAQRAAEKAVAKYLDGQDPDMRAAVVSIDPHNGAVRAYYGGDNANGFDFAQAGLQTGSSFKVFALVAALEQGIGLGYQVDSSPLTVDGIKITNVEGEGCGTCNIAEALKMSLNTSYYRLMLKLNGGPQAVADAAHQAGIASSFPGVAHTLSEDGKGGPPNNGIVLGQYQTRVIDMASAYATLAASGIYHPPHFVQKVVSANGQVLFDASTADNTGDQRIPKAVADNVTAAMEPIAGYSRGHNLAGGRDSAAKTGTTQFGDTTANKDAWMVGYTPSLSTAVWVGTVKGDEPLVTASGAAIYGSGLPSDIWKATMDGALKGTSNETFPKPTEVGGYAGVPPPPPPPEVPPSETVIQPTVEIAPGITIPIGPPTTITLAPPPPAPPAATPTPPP
From the text: BOCILLIN FL fluorescence inhibition, SDS-PAGE on PonA1 (Rv0050)

DacB2 (Rv2911) = DacB2 (Rv2911) (Mycobacterium tuberculosis, UniProt I6Y204)
Chain of DacB2 (Rv2911) (I6Y204 23-291): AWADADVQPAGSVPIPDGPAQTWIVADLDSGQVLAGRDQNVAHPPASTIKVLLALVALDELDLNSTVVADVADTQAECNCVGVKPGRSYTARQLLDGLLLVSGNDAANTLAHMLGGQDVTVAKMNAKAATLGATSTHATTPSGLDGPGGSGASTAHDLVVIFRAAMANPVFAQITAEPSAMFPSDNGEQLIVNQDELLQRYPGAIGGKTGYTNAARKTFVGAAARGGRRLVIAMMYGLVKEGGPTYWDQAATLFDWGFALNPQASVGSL
From the text: BOCILLIN FL fluorescence inhibition, SDS-PAGE on DacB2 (Rv2911)

PonA2 (Rv3682) = PonA2 (Rv3682) (Mycobacterium tuberculosis, UniProt I6YGX2)
Chain of PonA2 (Rv3682) (I6YGX2 entry or part of it): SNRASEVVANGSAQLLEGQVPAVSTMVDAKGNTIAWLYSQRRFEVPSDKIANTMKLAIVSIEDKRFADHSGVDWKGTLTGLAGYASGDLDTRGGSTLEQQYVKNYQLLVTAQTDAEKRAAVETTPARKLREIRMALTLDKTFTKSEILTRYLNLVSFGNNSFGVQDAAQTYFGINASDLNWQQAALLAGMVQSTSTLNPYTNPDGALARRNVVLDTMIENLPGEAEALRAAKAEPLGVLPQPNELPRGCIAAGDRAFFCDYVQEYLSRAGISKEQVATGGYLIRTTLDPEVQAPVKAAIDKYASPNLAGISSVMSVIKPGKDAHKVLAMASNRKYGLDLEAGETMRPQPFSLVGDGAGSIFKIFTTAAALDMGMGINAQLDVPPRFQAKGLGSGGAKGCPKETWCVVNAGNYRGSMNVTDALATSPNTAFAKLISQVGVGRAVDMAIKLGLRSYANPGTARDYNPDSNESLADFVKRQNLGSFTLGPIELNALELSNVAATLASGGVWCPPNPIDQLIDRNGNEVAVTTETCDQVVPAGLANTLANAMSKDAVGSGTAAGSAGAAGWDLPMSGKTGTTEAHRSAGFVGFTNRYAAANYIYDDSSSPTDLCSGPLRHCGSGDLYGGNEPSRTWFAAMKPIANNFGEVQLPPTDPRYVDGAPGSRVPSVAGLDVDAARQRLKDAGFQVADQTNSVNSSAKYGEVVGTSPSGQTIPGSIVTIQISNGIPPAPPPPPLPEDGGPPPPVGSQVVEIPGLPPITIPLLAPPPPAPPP
From the text: BOCILLIN FL fluorescence inhibition, SDS-PAGE on PonA2 (Rv3682)

Chain of PbpB (Rv2163c) (L0T911 112-679): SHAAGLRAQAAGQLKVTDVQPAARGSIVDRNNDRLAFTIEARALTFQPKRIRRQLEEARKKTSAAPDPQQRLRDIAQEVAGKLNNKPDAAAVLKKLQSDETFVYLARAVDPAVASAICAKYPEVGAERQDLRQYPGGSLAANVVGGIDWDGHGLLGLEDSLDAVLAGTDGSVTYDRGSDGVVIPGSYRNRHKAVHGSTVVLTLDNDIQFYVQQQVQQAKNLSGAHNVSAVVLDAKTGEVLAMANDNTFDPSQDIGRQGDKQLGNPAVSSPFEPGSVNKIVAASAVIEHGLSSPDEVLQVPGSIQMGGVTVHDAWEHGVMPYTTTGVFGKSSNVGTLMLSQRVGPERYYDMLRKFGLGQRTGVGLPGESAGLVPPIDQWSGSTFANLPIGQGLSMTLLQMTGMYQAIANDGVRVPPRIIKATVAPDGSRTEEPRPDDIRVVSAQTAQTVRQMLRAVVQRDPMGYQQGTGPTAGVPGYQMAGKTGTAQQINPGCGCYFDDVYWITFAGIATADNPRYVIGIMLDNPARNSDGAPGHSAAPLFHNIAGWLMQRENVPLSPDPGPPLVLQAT

CC1(C)S[C@@H]2[C@H](NC(=O)[C@H](N)c3ccccc3)C(=O)N2[C@H]1C(=O)O [Ampicillin]
IC50 (PbpB (Rv2163c)): 1.5 ± 0.4 µM

C[C@@H](O)[C@H]1C(=O)N2C(C(=O)[O-])=C(SC3Cn4cnc[n+]4C3)[C@H](C)[C@H]12 (some centres unmarked) [Biapenem]
IC50 (DacB (Rv3627c)): 3.5 ± 0.2 µM | IC50 (Rv1730c): 569 ± 72.1 µM | IC50 (DacB1 (Rv3330)): 18.1 ± 3 µM

C=CC1=C(C(=O)O)N2C(=O)[C@@H](NC(=O)/C(=N\O)c3csc(N)n3)[C@H]2SC1 [Cefdinir]
IC50 (PbpA (Rv0016c)): 13.8 ± 6.9 µM

CO[C@@]1(NC(=O)Cc2cccs2)C(=O)N2C(C(=O)O)=C(COC(N)=O)CS[C@@H]21 [Cefoxitin]
IC50 (PonA1 (Rv0050)): 25.1 ± 2.5 µM | IC50 (DacB1 (Rv3330)): 15.6 ± 1.2 µM | IC50 (DacB2 (Rv2911)): 8.1 ± 2.4 µM

C[C@@H](O)[C@H]1C(=O)N2C(C(=O)O)=C([C@H]3CCCO3)S[C@H]12 [Faropenem]
IC50 (Rv1730c): 89.8 ± 12.3 µM | IC50 (PonA1 (Rv0050)): 27.9 ± 3.5 µM

C[C@@H](O)[C@H]1C(=O)N2C(C(=O)O)=C(SCCN=CN)C[C@H]12 [Imipenem]
IC50 (PonA2 (Rv3682)): 3 ± 0.6 µM | IC50 (DacB1 (Rv3330)): 4.5 ± 1.4 µM | IC50 (DacB2 (Rv2911)): 11.1 ± 3.2 µM

C[C@@H](O)[C@H]1C(=O)N2C(C(=O)O)=C(S[C@@H]3CN[C@H](C(=O)N(C)C)C3)[C@H](C)[C@H]12 [Meropenem]
IC50 (DacB (Rv3627c)): 1.5 ± 0.2 µM | IC50 (Rv1730c): 838 ± 103 µM | IC50 (PbpB (Rv2163c)): 4.1 ± 0.2 µM

COc1cccc(OC)c1C(=O)N[C@@H]1C(=O)N2[C@@H]1SC(C)(C)[C@@H]2C(=O)O [Methicillin]
IC50 (PbpA (Rv0016c)): 11.6 ± 2.6 µM
